One data set relates to glucuronidase. Kind of data set: Half life in phosphate buffered saline at pH 7 in presence of glucuronidase at 37 degC. It is filed as ADME.
The nature of data set [1]: Half life in phosphate buffered saline at pH 7.4 at 37 degC. It is filed as physicochemical.

This note sets out measurements from ChEMBL document CHEMBL4177538, “Recent progress in prodrug design strategies based on generally applicable modifications” (Bioorg Med Chem Lett, 2017).

As for `CC[C@@]1(O)C(=O)OCc2c1cc1n(c2=O)Cc2cc3cc(OCc4ccc(O[C@@H]5O[C@H](C(=O)O)[C@@H](O)[C@H](O)[C@H]5O)c([N+](=O)[O-])c4)ccc3nc2-1`, in the data set on glucuronidase, the half-life was 20 min.

As for `Cc1cccc(C)c1OCC(=O)N[C@@H](Cc1ccccc1)[C@H](OC(=O)CCC(=O)NCCN1CCCCC1)C(=O)N1CSC(C)(C)[C@H]1C(=O)NC(C)(C)C`, the half-life in data set [1] turned out to be 12 min.

Broadly, the half-life is how long it takes for the measured level to halve.
